According to US12514894B2, “Traditional Chinese medicine composition for preventing and treating diabetes, traditional Chinese medicine preparation, and use thereof” (ZHEJIANG CHINESE MEDICAL UNIVERSITY, priority 2022, dated 2026):
Read-outs that look alike come from different tables or passages of the source.

Columns and labels:
[1] = test system: mouse bone marrow polychromatic erythrocytes (PCEs); conditions: CP 0.04 g/(kg · BW)
Protocol: The test solutions of each dose group were prepared by diluting 2.5, 5.0, and 10.0 mL of TCM decoction to 20 mL with purified water, respectively (each equivalent to 25, 50, and 100 times the recommended daily intake of an adult). For a positive control, 0.04 g of cyclophosphamide (CP) was diluted with purified water to 20 mL for later use. Fifty ICR mice weighing 25.1-30.0 g were randomly divided into three sample dose groups of 2.5, 5.0 and 10.0 mL/(kg·BW), a solvent control group (purified water) and a positive control group [CP 0.04 g/(kg·BW)] by gender and body weight, with 10 mice in each group, half male and half female. The gavage capacity was 20 mL/(kg·BW) each time, and the femoral bone marrow was suspended in calf serum for direct smear, methanol fixation, and Giemsa staining 6 h after the second gastric gavage. […] The number of normochromatic erythrocytes (NCEs) observed was counted while 200 PCEs per animal was observed. The ratio of both (PCE/NCE) was calculated. The results are as follows (see Table 1).

mouse sperm = conditions: CP 0.04 g/(kg · BW), 5 days gavage, day 35
Protocol: The dose planning and preparation methods of the positive control and samples are shown in the in vivo micronucleus assay in mouse bone marrow. Twenty-five healthy male ICR mice weighing 25.3-29.8 g were randomly divided into three sample dose groups of 2.5, 5.0 and 10.0 mL/(kg·BW), a solvent control group (purified water), and a positive control group [CP 0.04 g/(kg-BW)] by body weight, with five mice in each group. Animals in each group were given gastric gavage once a day for five consecutive days, and the gavage capacity was 20 mL/(kg·BW). At 35 days after the first administration of the test solution, the mice were sacrificed, bilateral epididymides were removed, and the epididymides were cut longitudinally with ophthalmic scissors, filtered, smeared, dried, fixed with methanol, stained with 2% (m:V) eosin, and microscopically observed.

[2] = test system: Salmonella typhimurium TA102; assay: Ames test, strain TA102; type: cell-based; conditions: Test 2
Protocol: (§1) The TCM decoction (20 mL) was sterilized at 121° C. for 20 min as a test solution. During the test, 0.1 mL of the test solution was added to each dish in the highest dose group, namely 5 μL/dish, and there was no contamination or inhibition during the pre-test. In the formal test, the test solution in the highest dose group was serially diluted 5 times with sterile purified water successively, and prepared into four test solutions with doses of 1, 0.2, 0.04, and 0.008 μL/dish, and five sample dose groups were formed. In addition, a solvent control group (sterile purified water), a blank control group (spontaneous reverse mutation group) and four positive control groups were set up. The solvents and dosages required for the preparation of positive controls sodium azide, Dexon, 2-aminofluorene and 1,8-dihydroxyanthraquinone are shown in Table 1. Sequentially, 0.1 mL each of the fresh enrichment broth of tester strain and the test solution were added into a top-layer culture medium held in a 45° C. water bath, 0.5 mL of 10% (V:V) S9 mixture was added when activated, and an equal volume of 0.2 mol/L pH7.4 phosphate buffer saline (PBS) was added without activation; after mixing well, the mixture was rapidly poured onto the bottom-layer culture medium, and the plate was rotated to uniformly distribute the top-layer culture medium on the bottom layer. […]

[3] = test system: Salmonella typhimurium TA98; assay: Ames test, strain TA98; type: cell-based; conditions: Test 2
Protocol: as §1

[4] = test system: Salmonella typhimurium TA100; assay: Ames test, strain TA100; type: cell-based; conditions: Test 2
Protocol: as §1

[5] = test system: SD rats with diabetes of dampness-heat pattern; assay: Lowering of blood glucose in rats with type 2 diabetes; type: in vivo, rat
Source text: Dose Planning: Low-, medium- and high-dose groups were designed in this experiment: 10 g (crude drug)/kg, 20 g (crude drug)/kg, and 40 g (crude drug)/kg. The dose groups were given by gastric gavage for 30 consecutive days, and the control group was given an equal quantity of normal saline.
SD rats with diabetes of dampness-heat pattern were modeled with reference to the 2014 edition of the Ideas and Methods of Clinical-mimetic Research on Integrated Animal Models of Disease and Syndrome. The specific method was as follows: Sixty specific pathogen-free (SPF) grade male Sprague-Dawley (SD) rats weighing 160-180 g were selected, 10 male SD rats were assigned to a normal control group, and the rest 50 ones were fasted but not deprived of water for 16-18 h (21:00 PM to 14:00 PM the next day); STZ was prepared into a 1.0% solution with […] citric acid buffer (pH=4.2, 4° C.), and the rats were fed with high-sugar and high-fat diet on Day 3 after tail vein injection of 10 mg kg^−1 STZ; the type 2 diabetes model was replicated by continuous high-sugar and high-fat feeding for 6-8 weeks (impaired glucose tolerance was deemed as successful modeling), and the normal control group was fed with normal diet. Later, after all rats were fed with normal animal feed and normally drank water for one week, they fasted but not deprived of water for 12 h; the tails of the rats were disinfected with alcohol, and the fasting plasma glucose of the rats was measured by tail vein blood sampling. […] After the successful modeling, the rats were given normal animal feed and access to water ad libitum for one week, so as to detect the stability of the model.
After the successful modeling, 50 rats were divided into a model control group, a positive control group, a low-dose TCM decoction group, a medium-dose TCM decoction group, and a high-dose TCM decoction group. Ten rats in the blank control group were given access to ordinary animal feed and water ad libitum, and an equal volume of normal saline was administered daily by gastric gavage. Ten rats in the model control group were given access to ordinary animal feed and water ad libitum, and an equal volume of normal saline was administered daily by gastric gavage. Ten rats in the positive control group were given access to ordinary animal feed and water ad libitum, and 0.25 g/kg metformin was administered daily by gastric gavage. Ten rats in the low-dose TCM decoction group were given access to ordinary animal feed and water ad libitum, and 10 g (crude drug)/kg TCM decoction was administered daily by gastric gavage. Ten rats in the medium-dose TCM decoction group were given access to ordinary animal feed and water ad libitum, and 20 g (crude drug)/kg TCM decoction was administered daily by gastric gavage. Ten rats in the high-dose TCM decoction group were given access to ordinary animal feed and water ad libitum, and 40 g (crude drug)/kg TCM decoction was administered daily by gastric gavage. All rats were fed for a total of 30 days. Rat body weight, fasting plasma glucose, and insulin level were measured before and after SD rat modeling and after gastric gavage.

[6] = test system: Salmonella typhimurium TA97a; assay: Ames test, strain TA97a; type: cell-based; conditions: Test 2
Protocol: as §1

[7] = test system: standard tester strains TA97a, TA98, TA100, and TA102; assay: Ames test, conclusion over the four tester strains; type: cell-based, Salmonella typhimurium; conditions: each of four strains, regardless of addition of S9, two duplicate tests
Protocol: as §1

[8] = 0.25 g/kg metformin daily by gavage, 30 days
[9] = positive control and the three TCM decoction dose groups, P<0.05
[10] = positive control group (0.25 g/kg metformin), baseline
[11] = positive control group (0.25 g/kg metformin), before treatment

## O=P1(N(CCCl)CCCl)NCCCO1 (centres unmarked) [CP, cyclophosphamide]
[1]; female
  Frequency of micronucleated cells: 15.64 ± 5.16 ‰
  Number of micronucleated PCEs: 88 n
  PCE/NCE: 1.02 ± 0.18
[1]; male
  Frequency of micronucleated cells: 17.57 ± 4.87 ‰
  Number of micronucleated PCEs: 78 n
  PCE/NCE: 1.03 ± 0.16
Mouse sperm
  Abnormality rate: 6.49 ± 0.74 %
  Total number of abnormal sperms: 357 n
  Type of abnormal sperms: Amorphous: 157
  Type of abnormal sperms: Banana-like: 8
  Type of abnormal sperms: Folded: 6
  Type of abnormal sperms: Hookless: 169
  Type of abnormal sperms: Large: 7
  Type of abnormal sperms: Two-head: 3
  Type of abnormal sperms: Two-tailed: 7

## CN(C)C(=N)N=C(N)N [Positive control, metformin]
[2]; TA102, +S9, positive control
  number of revertant colonies: 1085 ± 91
[2]; TA102, −S9, positive control
  number of revertant colonies: 973 ± 76
[3]; TA98, +S9, positive control
  number of revertant colonies: 1049 ± 94
[3]; TA98, −S9, positive control
  number of revertant colonies: 1091 ± 78
[4]; TA100, +S9, positive control
  number of revertant colonies: 1171 ± 91
[4]; TA100, −S9, positive control
  number of revertant colonies: 987 ± 117
[5]; [8]
  Body weight before administration: 435.4 ± 25.3 g
  fasting plasma glucose: Blood glucose after administration: 6.65 ± 1.39 mmol/L
  insulin level After administration: 44.13 ± 5.42 uIU/mL
[5]; [9]
  body weight after administration compared with model control group: lower than that in the model control group
  fasting plasma glucose after administration compared with after modeling: significantly lower than that after modeling
  insulin levels after administration compared with after modeling: significantly lower than those after modeling
[5]; [10]
  Body weight before modeling: 166.3 ± 10.8 g
  fasting plasma glucose: Blood glucose before modeling: 6.02 ± 0.48 mmol/L
[5]; [11]
  Body weight after modeling: 463.5 ± 17.3 g
  fasting plasma glucose: Blood glucose after modeling: 20.15 ± 3.23 mmol/L
  insulin level Before administration: 73.45 ± 9.45 uIU/mL
[6]; +S9, positive control
  number of revertant colonies: 1061 ± 84
[6]; −S9, positive control
  number of revertant colonies: 1027 ± 98
[7]
  number of revertant colonies compared with the solvent control: more than twice that of the corresponding solvent control
